We go through three substances from patent US20190111149A1, “ANTI-EGFR ANTIBODY DRUG CONJUGATE” (priority 2016, published 2019).

Bridge positions count the residues as written; N and C are the ends. Square brackets hold non-standard residues; d marks the D form. Ends that are not written are not given here. azido‑Phe = azido-phenylalanine, photoactivatable residue; Abu(3-Me-diazirin-3-yl) = CC1(CC[C@H](N)C(=O)O)N=N1; Bpa = N[C@@H](Cc1ccc(C(=O)c2ccccc2)cc1)C(=O)O

The target of this test is Meditope enabled Trastuzumab. In words: BLI binding kinetics of meditope peptides to Meditope enabled Trastuzumab. The procedure:
The binding kinetics of photo enabled meditopes to antibodies (e.g., meditope enabled Trastuzumab, T-mab, and P-mab) was tested.
(In BLI a coated tip is dipped into the sample, and binding shifts an interference pattern.)

Chain of Meditope enabled Trastuzumab (as listed by the source): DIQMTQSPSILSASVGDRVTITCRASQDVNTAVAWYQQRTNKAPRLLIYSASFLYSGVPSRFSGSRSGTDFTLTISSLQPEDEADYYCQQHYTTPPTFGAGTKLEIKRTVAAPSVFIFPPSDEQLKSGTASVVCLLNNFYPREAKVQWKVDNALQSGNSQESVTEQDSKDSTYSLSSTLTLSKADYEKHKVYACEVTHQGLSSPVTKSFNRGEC
Chain of Meditope enabled Trastuzumab (as listed by the source): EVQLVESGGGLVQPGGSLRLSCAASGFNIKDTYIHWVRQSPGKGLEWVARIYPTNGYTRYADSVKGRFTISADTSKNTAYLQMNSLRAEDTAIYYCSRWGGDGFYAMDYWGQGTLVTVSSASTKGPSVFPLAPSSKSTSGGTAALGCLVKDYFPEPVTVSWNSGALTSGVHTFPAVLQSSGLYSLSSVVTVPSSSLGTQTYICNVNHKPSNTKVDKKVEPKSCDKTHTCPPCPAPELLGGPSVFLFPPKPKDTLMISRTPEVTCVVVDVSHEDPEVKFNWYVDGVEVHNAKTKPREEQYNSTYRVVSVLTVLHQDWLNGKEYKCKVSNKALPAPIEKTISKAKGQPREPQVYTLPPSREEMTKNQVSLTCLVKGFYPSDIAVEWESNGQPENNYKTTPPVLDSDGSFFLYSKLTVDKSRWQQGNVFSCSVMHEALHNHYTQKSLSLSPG

A word on the Kd: it is a measure of binding affinity in units of concentration. Low values mean higher affinity, high ones lower affinity. What is called kon is the rate constant with which the complex forms. A low value points to slower complex formation. Take “Peptide 10: MMAD conjugated photoactivatable long cQFD azido-Phe 3 (CQ[azido‑Phe]DLSTRRLRCGGGK; disulfide 1-12 (inferred); also: MMAD conjugated)”: the Kd is less than 0.001 nM (Conc. 50 nM), 18100 nM (Conc. 100 nM) and 30200 nM (Conc. 200 nM). Further, the “kon” value was found to be 816 M⁻¹ s⁻¹ (Conc. 50 nM), 266 M⁻¹ s⁻¹ (Conc. 100 nM) and 537 M⁻¹ s⁻¹ (Conc. 200 nM).

Regarding “Peptide 12: MMAD conjugated photoactivatable long cQFD benzoyl-Phe 3 (CQ[Bpa]DLSTRRLRCGGGK; disulfide 1-12 (inferred); also: MMAD conjugated)”, the Kd reads like this: (Conc. 50 nM) less than 0.001 nM; (Conc. 100 nM) 1.22 nM; (Conc. 200 nM) 73.3 nM. Besides, the association rate constant (kon) amounted to 9.47e+06 M⁻¹ s⁻¹ (Conc. 100 nM) and 286000 M⁻¹ s⁻¹ (Conc. 200 nM).

With “Peptide 6: MMAD conjugated photoactivatable long cQFD photo-Met 9 (CQFDLSTR[Abu(3-Me-diazirin-3-yl)]LRCGGGK; disulfide 1-12 (inferred); also: MMAD conjugated)”, the Kd is less than 0.001 nM (Conc. 50 nM), 2.51 nM (Conc. 100 nM) and 0.0191 nM (Conc. 200 nM). Also, the “kon” value (Conc. 100 nM) was 3.65e+06 M⁻¹ s⁻¹.
